The target of assay [1] is T1, Alkylglycerol monooxygenase (AGMO) (Rattus norvegicus, UniProt A0JPQ8).
T1 construct: native enzyme in rat liver microsomes
T1 sequence (A0JPQ8 1-447): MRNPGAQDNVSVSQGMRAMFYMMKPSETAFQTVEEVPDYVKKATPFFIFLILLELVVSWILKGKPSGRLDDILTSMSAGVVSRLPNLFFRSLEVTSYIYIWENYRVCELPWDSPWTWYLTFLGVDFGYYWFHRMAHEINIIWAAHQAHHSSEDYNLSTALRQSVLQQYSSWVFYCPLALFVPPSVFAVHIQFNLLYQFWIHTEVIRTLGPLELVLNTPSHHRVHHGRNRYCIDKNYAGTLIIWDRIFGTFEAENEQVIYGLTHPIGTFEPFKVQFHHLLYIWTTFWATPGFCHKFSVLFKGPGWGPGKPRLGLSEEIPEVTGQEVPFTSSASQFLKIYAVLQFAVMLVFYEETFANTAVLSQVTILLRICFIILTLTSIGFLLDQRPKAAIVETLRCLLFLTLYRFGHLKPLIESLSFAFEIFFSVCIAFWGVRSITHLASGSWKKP
The experiment in a line: HPLC fluorescence activity assay with 1-O-pyrenedecyl-sn-glycerol in rat liver microsomes, coupled to FALDH (FALDH not inhibited). It counts as biochemical. Background: Liver microsomes are a subcellular fraction often used to study metabolism.

Assay [2] has as its target T2, phenylalanine hydroxylase (PAH) (Rattus norvegicus, UniProt P04176).
T2 construct: rat PAH maltose fusion protein, expressed in E. coli
T2 sequence (P04176 2-453): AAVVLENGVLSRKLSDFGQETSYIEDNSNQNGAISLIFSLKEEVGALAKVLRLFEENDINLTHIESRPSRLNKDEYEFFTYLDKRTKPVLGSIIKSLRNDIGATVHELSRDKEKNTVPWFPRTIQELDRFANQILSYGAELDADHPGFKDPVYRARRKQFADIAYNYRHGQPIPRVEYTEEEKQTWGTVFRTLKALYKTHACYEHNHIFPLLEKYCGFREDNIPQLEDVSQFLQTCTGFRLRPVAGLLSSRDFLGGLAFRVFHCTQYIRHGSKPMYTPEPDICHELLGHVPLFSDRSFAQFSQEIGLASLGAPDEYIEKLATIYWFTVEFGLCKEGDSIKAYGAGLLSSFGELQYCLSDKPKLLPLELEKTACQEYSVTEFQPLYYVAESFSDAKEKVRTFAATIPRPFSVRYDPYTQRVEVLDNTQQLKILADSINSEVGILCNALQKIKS
Put plainly: HPLC tyrosine fluorescence assay with purified recombinant PAH. It counts as biochemical.

Each structure is given as a SMILES string.

The IC50 is the concentration that inhibits the measured activity by half.

For `CC1Nc2nc(N(C)C)[nH]c(=O)c2NC1C` (centres unmarked) [compound 6, 2-(dimethylamino)-6,7-dimethyl-5,6,7,8-tetrahydro-4(3H)-pteridinone], the concentration for half-maximal inhibition (IC50) in assay [1] is ~50 µM; in assay [2] it was 360 to 430 µM.

Values taken from article PMC8147360, “AGMO Inhibitor Reduces 3T3-L1 Adipogenesis” (Cells, 2021).
